These results are taken from patent publication US20040116501A1, “Treatment of nonallergic rhinitis by selective phosphodiesterase 4 inhibitors” (priority 2002, published 2004).

The assay has as its system acetic acid-induced vascular permeability of the rat nasal mucosa. Briefly: Acetic acid-induced vascular permeability in Sprague-Dawley rats (nonallergic rhinitis model), Evans Blue in nasal perfusate. Type of assay: in vivo. The following applies: for inhibition of the vascular permeability of the nasal mucosa (in words): test range from 0.1 to 10 μmol/l. As to the method:
Effect on Acetic Acid-Induced Vascular Permeability in Sprague-Dawley Rats (Nonallergic Rhinitis Model)
Male Sprague-Dawley rats weighing 280-320 g are anesthetized on the day of the experiment by i.p. injection of 0.9-1 ml/animal of a 2.5% strength thiopental sodium solution. The trachea is then exposed below the epiglottis and incised at two points. A polyethylene catheter is pushed into the lower opening in the trachea in the direction of the lung (orthograde) and secured by tying with twine in order to maintain breathing. A second polyethylene catheter with LUER lock connector (cut from Original-Perfusor® line) for retrograde perfusion of the nasal cavity is introduced into the upper opening and advanced retrogradely as far as the inner opening of the choanae so that the solution can flow through the nasal cavity. 8 animals in total are placed individually on their backs on specially fabricated plastic tables in such a way that the perfusion fluid can drip out of the nostrils and be collected in the fraction collector.
During this, half of the head looks with the nose beyond the edge of the table.
A polyethylene infusion line is connected to the LUER lock connector of the catheter which has been secured retrogradely in each animal and is immersed in the container with the prepared perfusion fluid via a roller pump. The roller pump is adjusted to a constant delivery of 0.5 ml of fluid/min. A red lamp is switched on over the animals for warming.
Initial perfusion of the nasal cavity with PBS for 30 min serves to wash out the nasal mucus. During this, the fraction collector is switched on and the perfusate dripping out of the nostrils is collected in 15 min fractions (2 fractions). The second fraction is used as normal value for the experiment.
The test substances are administered topically before administration of acetic acid. They are added to the perfusion medium (PBS, Dulbecco) in molar concentrations. 4.6 mg of AWD 12-281 or other test substances such as AWD 12-322 or AWD 12-298 are diluted in accordance with their molecular weight (4.6 mg of AWD 12-322 or 5.2 mg of AWD 12-298) with 1 ml of 1N NaOH and then made up to 10 ml with double-distilled H2O. […] These solutions are perfused through the noses using the roller pump for 30 min, and the 2 samples obtained from the fraction collector are discarded. The roller pump is then switched off.
After perfusion with the substance, the plasma marker Evans Blue (1% strength solution in PBS) is injected, 1 ml per animal, into the jugular vein and then 0.1% strength acetic acid solution is forced through tubings and roller pumps into the nasal cavity until 2-3 drops of acetic acid solution drip from the conchae. The roller pumps are then switched off. The acetic acid solution is left in the nasal cavity for 30 minutes in order to ensure complete permeation of the nasal mucosa.
After an exposure time of 30 minutes, the roller pumps and the fraction collector are switched on again, and the 0.1% strength acetic acid solution in PBS is perfused retrogradely (with a constant delivery of 0.5 ml liquid/min) through the nasal cavity for 60 min. During this, the perfusate dripping out of the nostrils is continuously received in glass tubes and collected in 4 periods of 15 min. Aliquots of the samples including the control samples are placed on microtiter plates and measured using a Digiscan photometer at a wavelength of 620 nm relative to the control sample (blank). […] The Evans Blue content in 4 collected fractions, each selected over 15 minutes, of the perfusate flowing out in μg/ml is calculated by formula 1: [formula]
tn time interval (15 min)
yn Evans Blue content per time interval (μg/l per 15 min)
The means and standard deviations (x±SD) of the AUC′ for individual animals in a control group or a group of animals pretreated with substance are calculated. The inhibition of the vascular permeability is stated in percent.

Where [1] appears, read: acetic acid-induced rhinitis in rats.
Where [2] appears, read: test substance concentration 0.1 μmol/l, single 30-minute nasal perfusion before 0.1% acetic acid, rat.
Setting [3] is: test substance concentration 1 μmol/l, single 30-minute nasal perfusion before 0.1% acetic acid, rat.
Setting [4] is: test substance concentration 3 μmol/l, single 30-minute nasal perfusion before 0.1% acetic acid, rat.
The mark [5] stands for this setting: test substance concentration 10 μmol/l, single 30-minute nasal perfusion before 0.1% acetic acid, rat.
Where [6] appears, read: test substance concentration 1 μmol/l, single 30-minute nasal perfusion before 0.1% acetic acid, rat, vs vehicle control.
The mark [7] stands for this setting: test substance concentration 3 μmol/l, single 30-minute nasal perfusion before 0.1% acetic acid, rat, vs vehicle control.
Where [8] appears, read: test substance concentration 10 μmol/l, single 30-minute nasal perfusion before 0.1% acetic acid, rat, vs vehicle control.

Like-named read-outs stand apart in the source and are kept apart here. Marks after values point to notes of the source that are not given here.

For orientation: inhibition means how much of the control response was suppressed. `O=C(Nc1c(Cl)cncc1Cl)C(=O)c1cn(Cc2ccc(F)cc2)c2ccc(O)cc12` [AWD 12-281, N-(3,5-dichloropyrid-4-yl)-[1-(4-fluorobenzyl)-5-hydroxyindol-3-yl]glyoxylamide]: the inhibition at 0.1 µM (0.5 h, test substance concentration 0.1 μmol/l, single 30-minute nasal perfusion before 0.1% acetic acid, rat, vs vehicle control, read-out: % Inhibition) was 29%. In addition, the inhibition at 1 µM (0.5 h, test substance concentration 1 μmol/l, single 30-minute nasal perfusion before 0.1% acetic acid, rat, vs vehicle control, read-out: % Inhibition) came out at 61%. For the setting “0.5 h, test substance concentration 3 μmol/l, single 30-minute nasal perfusion before 0.1% acetic acid, rat, vs vehicle control”, this molecule showed an inhibition at 3 µM of 58%. In addition, the inhibition at 10 µM (0.5 h, test substance concentration 10 μmol/l, single 30-minute nasal perfusion before 0.1% acetic acid, rat, vs vehicle control, read-out: % Inhibition) worked out at 76%. Also, under setting [1], the “inhibition of the vascular permeability of the nasal mucosa (in words)” value was “concentration-dependent inhibition”. In addition, the “Evans Blue content (μg/ml) in the perfusate AUC′ x ± SD” value is, setting by setting: under setting [2], 10.88 ± 8.45 µg/mL; under setting [3], 5.96 ± 7.97 µg/mL; under setting [4], 6.41 ± 5.81 µg/mL; under setting [5], 3.68 ± 4.40 µg/mL.

Usually % Inhibition stands for the share of the control response that was lost under treatment. Read a high % Inhibition as strong suppression. As to `CCOC(C)=O.O=C(Nc1c(Cl)cncc1Cl)C(=O)c1cn(Cc2c(F)cccc2F)c2ccc(O)cc12.O=C(Nc1c(Cl)cncc1Cl)C(=O)c1cn(Cc2c(F)cccc2F)c2ccc(O)cc12` [AWD 12-298, N-(3,5-dichloropyrid-4-yl)-[1-(2,6-difluorobenzyl)-5-hydroxyindol-3-yl]glyoxylamide semi-ethyl acetate], under “concentration range from 3 to 10 μmol/l, rats”, the “activity in the model of acetic acid-induced rhinitis (in words)” value is reported as “concentration-dependent activity”. Further, the “Evans Blue content (μg/ml) in the perfusate AUC′ x ± SD” value runs as follows: under setting [3], 17.72 ± 9.31 µg/mL; under setting [4], 8.43 ± 5.56 µg/mL; under setting [5], 6.03 ± 7.11 µg/mL. In addition, the “% Inhibition” value is reported as 0% under setting [6], 49% under setting [7] and 64* % under setting [8].

Take `O=C(Nc1c(Cl)cncc1Cl)C(=O)c1cn(Cc2ccc(O)cc2)c2ccc(O)cc12` [AWD 12-322, N-(3,5-dichloropyrid-4-yl)-2-[5-hydroxy-1-(4-hydroxybenzyl)-1H-indol-3-yl]glyoxylamide]: under “Rattus norvegicus, 0.5 h”, the inhibition at 0.1 µM is 5%, the inhibition at 1 µM worked out at 50% and the inhibition at 10 µM is 82%. In addition, under setting [1], the “inhibition of the vascular permeability of the nasal mucosa (in words)” value is given as “concentration-dependent inhibition”. The “Evans Blue content (μg/ml) in the perfusate AUC′ x ± SD” value under setting [2] worked out at 13.77 ± 6.65 µg/mL. The “Evans Blue content (μg/ml) in the perfusate AUC′ x ± SD” value under setting [3] is 7.25 ± 6.77 µg/mL. Besides, the “Evans Blue content (μg/ml) in the perfusate AUC′ x ± SD” value under setting [5] is 2.62 ± 3.44 µg/mL.

For the molecule `C[C@H]1C[C@H]2[C@@H]3CCC4=CC(=O)C=C[C@]4(C)[C@@]3(Cl)[C@@H](O)C[C@]2(C)[C@@]1(O)C(=O)CO` [Beclomethasone, beclomethasone, reference compound], the “effect against the vascular plasma permeability induced by acetic acid in the nasal mucosa (in words)” value (rat rhinitis model, summary statement) is recorded as “dose-dependent effect”. Also, where the note is “standard therapeutic agents, acetic acid-induced rhinitis in rats”, the “activity compared with the PDE4 inhibitors (in words)” value is “approximately the same activity”. In addition, the “Evans Blue content (μg/ml) in the perfusate AUC′ x ± SD” value reads like this: (test substance concentration 0.01 μmol/l, single 30-minute nasal perfusion before 0.1% acetic acid, rat) 10.70 ± 2.38 µg/mL; under setting [2], 4.93 ± 3.19 µg/mL; under setting [3], 0.93 ± 1.80 µg/mL; under setting [4], 5.51 ± 7.12 µg/mL; under setting [5], 4.86 ± 8.08 µg/mL. Moreover, the “% Inhibition” value by setting is: (test substance concentration 0.01 μmol/l, single 30-minute nasal perfusion before 0.1% acetic acid, rat, vs vehicle control) 38%; (test substance concentration 0.1 μmol/l, single 30-minute nasal perfusion before 0.1% acetic acid, rat, vs vehicle control) 72* %; under setting [6], 95** %; under setting [7], 68* %; under setting [8], 81** %.
